Earlier results, collected in patent US20240261217A1, “NUTRACEUTICAL GUMMY COMPOSITIONS AND METHOD OF PREVENTING ALCOHOL OVERCONSUMPTION SYMPTOMS” (LiQure, Inc., priority 2023, published 2024).
Entries after “also recorded” stand apart in the source; their conditions may differ.

How the values were obtained:
[1] = recent studies
liver = conditions: mouse, in vivo
intoxicated mice = conditions: DHM administered to intoxicated mice
[2] = in vivo
[3] = test system: acetaldehyde dehydrogenase (ALDH)
[4] = test system: alcohol dehydrogenase (ADH)

In the case of `O=C1c2c(O)cc(O)cc2O[C@H](c2cc(O)c(O)c(O)c2)[C@H]1O` [DHM, Dihydromyricetin], the “effect on blood alcohol levels” value [1] is given as “can reduce blood alcohol levels”, the “effect on alcohol-induced liver damage” value (liver) is given as “can also prevent (and help repair) alcohol-induced liver damage; also recorded: protect the liver from alcohol-induced damage” and the anti-hangover benefits (intoxicated mice) is given as “provide “anti-hangover” benefits”. For the same compound, the liver-protection properties (intoxicated mice) was “possesses liver-protection properties”, the “amount found to mitigate symptoms of over-intoxication from alcohol” value [2] was 100 to 650 mg and the “effect on activity of acetaldehyde dehydrogenase (ALDH)” value [3] was “enhances the activity of these enzymes”. The “hangover symptoms compared with people who did not take DHM” value (during a hangover) was “fewer headaches, less dizziness, less nausea, and less weakness during a hangover”, the “symptoms when taking DHM after drinking alcohol” value (studies and anecdotal reports, users) was “fewer headaches, less nausea, less vomiting and less anxiety” and the “effect on activity of alcohol dehydrogenase (ADH)” value [4] was “enhances the activity of these enzymes”.
